In experiment [1] the test system is SF-295. Kind of experiment: Growth inhibition of human SF-295 cells measured after 48 hrs by SRB assay. In kind it is functional. In general terms: The SRB assay estimates cell density from bound dye.
In experiment [2] the test system is MDA-MB-231. In words: Growth inhibition of human MDA-MB-231 cells measured after 48 hrs by SRB assay. In kind it is functional.
Experiment [3] concerns HT-29. Kind of experiment: Growth inhibition of human HT-29 cells measured after 48 hrs by SRB assay. The class given is functional, cell-based. The following applies: HT-29, 48 h.
In experiment [4] the test system is HCT-116. Kind of experiment: Growth inhibition of human HCT-116 cells measured after 48 hrs by SRB assay. In kind it is functional, cell-based. The settings on record: HCT-116, 48 h.
Experiment [5] deals with MCF7. In words: Antiproliferative activity against human MCF7 cells by Alamar Blue assay. The class given is functional, cell-based. In general terms: Alamar Blue is a resazurin reagent that responds to reducing activity.
Experiment [6] relates to MDA-MB-231. Kind of experiment: Antiproliferative activity against human MDA-MB-231 cells by Alamar Blue assay. In kind it is functional, cell-based.
Experiment [7] concerns SF-295. Kind of experiment: Antiproliferative activity against human SF-295 cells by Alamar Blue assay. The class given is functional, cell-based.

Bounds are passed on as bounds.

In general, GI50 refers to the concentration at which growth is held to half of that of the control. The low end stands for more potent growth inhibition, the high end for less potent growth inhibition. What is called IC50 is the midpoint of a concentration-inhibition curve. In the case of `CC(=O)N[C@H](C)[C@@H](O)[C@@H](C)[C@@H]1OC(=O)/C=C/C=C(C)\C=C\[C@]2(C)CCC=C[C@@H]2/C=C(C)/C=C/[C@H]1C`, the concentration for 50% growth inhibition (GI50) in experiment [1] and in experiment [2] was below 10 nM in each case. In addition, the IC50 in experiment [3] was 7.5 nM; in experiment [4] it was 52.7 nM; in experiment [5], 40.8 nM; in experiment [6], 61.1 nM.

In the case of `CC1=C/C=C/C(=O)O[C@@H]([C@H](C)[C@H](O)[C@@H](C)NC(=O)CCOCCOCCOCCOCCNC(=O)CCCC[C@@H]2SC[C@@H]3NC(=O)N[C@@H]32)[C@H](C)/C=C/C(C)=C/[C@H]2C=CCC[C@@]2(C)\C=C\1`, the IC50 in experiment [7], in experiment [5] and in experiment [6] was above 5000 nM throughout.

Values taken from ChEMBL document CHEMBL5365397, “Synthesis and biological evaluation of biotinylated ZJ-101” (Bioorg Med Chem Lett, 2023).
